From patent US20250346613A1, “BORIC ACID PROTEASOME INHIBITOR AND USE THEREOF” (ARTIVILA BIOPHARMA, priority 2022, published 2025)

Key:
Format in all cases: cell-based
[1] = target: T1, β5c subunit of the 20S proteasome (Homo sapiens, UniProt P20618+P28074); test: Proteasome inhibitory activity, β5c subunit (Raji cells treated with compound, lysed, Suc-LLVY-AMC substrate); settings: proteasome from Raji cells incubated with compound 4 h
T1 construct: The proteasome tested in the present disclosure was derived from Raji cells; endogenous in cells; host or cells: Raji cells
From the text: (§1) In the present disclosure, the fluorescent peptide substrate Ac-Ala-Asn-Trp-AMC (abbreviated as Ac-ANW-AMC) and the […] kit containing a fluorescent peptide substrate Suc-Leu-Leu-Val-Tyr-AMC (abbreviated as Suc-LLVY-AMC) (Promega, Item No. G8660) were used to detect the activities of the β5i subunit and β5c subunit of the 20S proteasome, respectively.
(§2) The proteasome tested in the present disclosure was derived from Raji cells, the fluorescent substrate Ac-ANW-AMC was purchased from Roche company, and other reagents were purchased from Sigma company. The experimental system was divided into two parts of cell lysis system and enzyme reaction system. […] The starting concentration of the compound (inhibitor) was 1 μM. It was diluted in a 3-fold serial dilution to a total of 8 concentrations, that is, the administration concentration can be 1 μM, 0.333 μM, 0.111 μM . . . , respectively, and the specific experimental process was described below.
(§3) Raji cells (1×10^6 cells) cryopreserved in liquid nitrogen were thawed rapidly in a water bath at 37° C. The cell pellet was transferred to a 15 mL centrifuge tube, added with 9 mL of fresh medium (Gibco RPMI1640 added with 10% fetal bovine serum and 1% double antibiotics), centrifuged at 120 g for 5 min, inoculated to 25 mL cell culture flasks, and passaged once every 2-3 days.
(§4) The compound was weighed and dissolved in DMSO to a concentration of 10 mM. The compound was then sequentially diluted to concentrations of 200 μM, 66.67 μM, 22.22 μM, 7.41 μM, 2.47 μM, 0.82 μM, 0.27 μM, and 0.091 μM with fresh medium. Raji cells in a good growth status were inoculated into a 48-well cell culture plate at 7×10^5 cells/mL.
(§5) Raji cells in a good growth status were taken and counted. They were then inoculated to a 48-well cell culture plate at 7×10^5 cells/mL. Each 5 μL of the various concentrations of diluted compounds above were taken and added to the culture plate inoculated with cells, and the lowest concentration of compound was 0 μM. The drug bortezomib (Velcade) and ONX-0914 were used as the positive control compounds. All cells were incubated at 37° C. for 4 h.
(§6) The compound-treated cells were sequentially transferred into 1.5 mL centrifuge tubes, centrifuged at 10000 rpm for 2 min, and the supernatants were removed. The cell pellet was resuspended in 1 mL of PBS, centrifuged at 10000 rpm for 2 min, and the supernatant was removed. Cells were resuspended by adding 100 μL of cell lysate (50 mM Tris of pH 7.5, 150 mM NaCl, 5 mM MgCl2, 5 mM ATP, 1 mM DTT, 0.01% NP-40, 1 mM Digitonin, and Cocktail), placed in an ice bath for 30 min, and centrifuged at 13000 rpm for 10 min.
(§7) 2 mg of fluorescent peptide substrate AC-ANW-AMC was dissolved in 424.7 μL of DMSO to obtain an 8 mM stock solution, and stored at −20° C. The stock solution was diluted 100-fold to a final concentration of […] for use in the reaction system. The fluorescent peptide substrate Suc-LLVY-AMC was prepared according to the instructions of the Promega kit.
(§8) Each 20 μL of the prepared proteasome solution above was added to a 96-well white luciferase microplate and added with 25 μL of AC-ANW-AM substrate buffer solution (50 mM Tris of pH 7.5, 150 mM NaCl, 5 mM MgCl2, 5 mM ATP, 80 uM Ac-ANW-AMC and 1 mM DTT) and 25 μL of Suc-LLVY-AMC substrate buffer solution for 10 min of reaction at 37° C. in the dark. Fluorescence values were read at 345 nm/445 nm by using a fluorence microplate reader.
(§9) The data were exported and the inhibition rate in percentage was calculated according to the following formula: Inhibition rate=(maximum signal value-compound signal value)/(maximum signal value−blank signal value)×100%.
(§10) Where the maximum signal was obtained from cell lysates treated with DMSO only, and the blank signal was obtained from wells containing only lysates.

[2] = target: T2, β5i subunit of the 20S proteasome (Homo sapiens, UniProt P20618+P28062); test: Proteasome inhibitory activity, β5i subunit (Raji cells treated with compound, lysed, Ac-ANW-AMC substrate); settings: proteasome from Raji cells incubated with compound 4 h
T2 construct: The proteasome tested in the present disclosure was derived from Raji cells; endogenous in cells; host or cells: Raji cells
From the text: as §1, §2, §3, §4, §5, §6, §7, §8, §9, §10

MM.1S cell strain = test: Inhibitory activity of cell strain (CellTiter-Glo); settings: Homo sapiens, MM1.S, 72 h incubation
Description: The cells used in this experiment were MM.1S cell strain and the detection reagent was CellTiter-Glo (Promega). […] The experimental process was described below. MM.1S cells in the logarithmic growth phase and in a good status were digested into individual cells by trypsin, centrifuged to remove the supernatant, and counted. Cells were diluted and 100 μL of cell suspension per well was added to a 96-well enzyme-coated plate at 1×10^5 cells per well. The wells containing only RPMI1640 complete medium were set as blank control. The 96-well plate was transferred to a 37° C. incubator containing 5% CO2 for 24 h of incubation.
The compound was accurately weighed and dissolved in DMSO to a concentration of 10^−2 M. 10 μL of compound was pipetted to 190 μL of DMSO to given a 5×10^−4 M compound. 6 μL of the compound (5×10^−5 M) was pipetted to a new 96-well microplate containing 194 μL of RPMI1640 complete medium and diluted in a 3-fold gradient dilution. 50 μL of the diluted compound was transferred to the 96-well microplate containing the cells such that the final compound concentrations were 5×10^−7 M, 1.67×10^−7 M, 5.55×10^−8 M, 1.85×10^−8 M, 6.17×10^−9 M, 2.06×10^−9 M, 6.86×10^−10 M, 2.29×10^−10 M, and 0 M. For the 0 M, no compound was added, and the same concentration of DMSO was added. The marketed drug bortezomib was used as a positive control. The 96-well microplate added with compounds was placed in the 37° C. incubator for 72 h of incubation.
At the predetermined detection time, the 96-well microplate to be detected was placed at room temperature, added with 40 μL of detection reagent (CellTiter-Glo) per well, and covered with a dark lid or piece of aluminium foil. The contents were mixed on an orbit oscillator for 10 min for complete cell lysis, with a vibration speed of 150 rpm. Luminescence values were detected on a multifunctional microplate reader (BioTek Synergy H1 Hybrid Multi-Mode Reade).
The data were exported and the percentage inhibition was calculated according to the following formula: Inhibition rate=(maximum signal value-compound signal value)/(maximum signal value−blank signal value)×100%, • wherein maximum signal was obtained from alone DMSO-treated cells, and blank signal was obtained from wells containing only culture medium.

| IC50 [1] | IC50 [2] | IC50 (MM.1S cell strain) | SMILES |
| --- | --- | --- | --- |
| ≤ 50 nM | ≤ 50 nM | ≤ 50 nM | Cc1ccc(C[C@H](NC(=O)C(C)C(=O)NCc2cccc(C(F)(F)F)c2)B(O)O)cc1 (stereo partly drawn) [Example 92, ((1R)-1-(2-methyl-3-oxo-3-((3-(trifluoromethyl)benzyl)amino)propionamido)-2-(p-tolyl)ethyl)boric acid] |
| ≤ 50 nM | ≤ 50 nM | ≤ 50 nM | COc1cccc(CNC(=O)CC(=O)N[C@@H](Cc2ccc(C)cc2)B(O)O)c1 [Example 50, (R)-(1-(3-((3-methoxybenzyl)amino)-3-oxopropionylamino)-2-(p-tolyl)ethyl)boric acid] |
| ≤ 50 nM | ≤ 50 nM | ≤ 50 nM | COc1cccc(CCNC(=O)C(C)C(=O)N[C@@H](Cc2ccc(-c3ccccc3)cc2)B(O)O)c1 (stereo partly drawn) [Example 64, ((1R)-2-([1,1′-biphenyl]-4-yl)-1-(3-((3-methoxyphenylethyl)amino)-2-methyl-3-oxopropionamido)ethyl)boric acid] |
| ≤ 50 nM | ≤ 50 nM | ≤ 50 nM | O=C(CC(=O)N[C@@H](Cc1ccccc1)B(O)O)NCc1cccc(-c2ccccc2)c1 [Example 44, (R)-(1-(3-(([1,1′-biphenyl]-3-ylmethyl)amino)-3-oxopropionamido)-2-phenylethyl)boronic acid] |
| ≤ 50 nM | ≤ 50 nM | ≤ 50 nM | CC(C(=O)NCc1cccc(OC(F)(F)F)c1)C(=O)N[C@@H](Cc1coc2ccccc12)B(O)O (stereo partly drawn) [Example 73, ((1R)-2-(benzofuran-3-yl)-1-(2-methyl-3-oxo-3-((3-(trifluoromethoxy)benzyl)amino)propionamido)ethyl)boric acid] |
| ≤ 50 nM | ≤ 50 nM | ≤ 50 nM | COc1cccc(CNC(=O)C(C(=O)N[C@@H](Cc2coc3ccccc23)B(O)O)C(C)C)c1 (stereo partly drawn) [Example 75, ((1R)-2-(benzofuran-3-yl)-1-(2-((3-methoxybenzyl)carbamoyl)-3-methylbutanamido)ethyl)boric acid] |
| ≤ 50 nM | ≤ 50 nM | ≤ 50 nM | Cc1ccc(C[C@H](NC(=O)C(Cc2ccccc2)C(=O)NCc2ccc3[nH]ccc3c2)B(O)O)cc1 (stereo partly drawn) [Example 90, ((1R)-1-(3-(((1H-indol-5-yl)methyl)amino)-2-benzyl-3-oxopropionamido)-2-(p-tolyl)ethyl)boric acid] |
| ≤ 50 nM | ≤ 50 nM | 50 to 200 nM | CC(C(=O)NCc1cccc(-c2ccccc2)n1)C(=O)N[C@@H](Cc1ccc(-c2ccccc2)cc1)B(O)O (stereo partly drawn) [Example 58] |
| 50 to 200 nM | ≤ 50 nM | 50 to 200 nM | CC(C)C[C@H](NC(=O)C(C)C(=O)NC1CCCCC1)B(O)O (stereo partly drawn) [Example 41, ((1R)-1-(3-(cyclohexylamino)-2-methyl-3-oxopropionamido)-3-methylbutyl)boric acid] |
| ≤ 50 nM | ≤ 50 nM | 50 to 200 nM | Cc1ccc(C[C@H](NC(=O)C(C)(F)C(=O)NCc2cccc(-c3ccccc3)n2)B(O)O)cc1 (stereo partly drawn) [Example 56, ((1R)-1-(2-fluoro-2-methyl-3-oxo-3-(((6-phenylpyridin-2-yl)methyl)amino)propionylamino)-2-(p-tolyl)ethyl)boric acid] |
| ≤ 50 nM | ≤ 50 nM | ≤ 50 nM | COc1cccc(CNC(=O)C(Cc2ccccc2)C(=O)N[C@@H](Cc2ccc(C)cc2)B(O)O)c1 (stereo partly drawn) [Example 65, ((1R)-1-(2-benzyl-3-((3-methoxybenzyl)amino)-3-oxopropionamido)-2-(p-tolyl)ethyl)boric acid] |
| ≤ 50 nM | ≤ 50 nM | ≤ 50 nM | COc1cccc(CCNC(=O)C(C)C(=O)N[C@@H](Cc2ccc(C)cc2)B(O)O)c1 (stereo partly drawn) [Example 62, ((1R)-1-(3-((3-methoxyphenylethyl)amino)-2-methyl-3-oxopropionamido)-2-(p-tolyl)ethyl)boric acid] |
| 50 to 200 nM | 50 to 200 nM | 50 to 200 nM | CC(C)C[C@H](NC(=O)C(C)C(=O)NCc1ccccc1)B(O)O (stereo partly drawn) [Example 28, ((1R)-1-(3-(benzylamino)-2-methyl-3-oxopropionamido)-3-methylbutyl)boric acid] |
| 50 to 200 nM | ≤ 50 nM | > 500 nM | COc1cccc(CNC(=O)C(CC2CCCCC2)C(=O)N[C@@H](Cc2ccc(C)cc2)B(O)O)c1 (stereo partly drawn) [Example 83, ((1R)-1-(2-(cyclohexylmethyl)-3-((3-methoxybenzyl)amino)-3-oxopropionamido)-2-(p-tolyl)ethyl)boric acid] |
| 50 to 200 nM | ≤ 50 nM | 200 to 500 nM | CC(C(=O)Nc1ccccc1)C(=O)N[C@@H](Cc1ccccc1)B(O)O (stereo partly drawn) [Example 47, ((1R)-1-(2-methyl-3-oxo-3-(phenylamino)propionylamino)-2-phenylethyl)boronic acid] |
| 50 to 200 nM | ≤ 50 nM | ≤ 50 nM | O=C(NCc1ccc2[nH]ccc2c1)C(Cc1ccccc1)C(=O)N[C@@H](Cc1coc2ccccc12)B(O)O (stereo partly drawn) [Example 91, ((1R)-1-(3-(((1H-indol-5-yl)methyl)amino)-2-benzyl-3-oxopropionamido)-2-(benzofuran-3-yl)ethyl)boric acid] |
| ≤ 50 nM | ≤ 50 nM | ≤ 50 nM | Cc1ccc(C[C@H](NC(=O)C(C)C(=O)NCc2cccc(-c3ccccc3)n2)B(O)O)cc1 (stereo partly drawn) [Example 45, ((1R)-1-(2-methyl-3-oxo-3-(((6-phenylpyridin-2-yl)methyl)amino)propionamide)-2-(p-tolyl)ethyl)boric acid] |
| ≤ 50 nM | ≤ 50 nM | ≤ 50 nM | COc1cccc(CNC(=O)C(C(=O)N[C@@H](Cc2ccc(C)cc2)B(O)O)C(C)C)c1 (stereo partly drawn) [Example 87, ((1R)-1-(2-((3-methoxybenzyl)carbamoyl)-3-methylbutanamido)-2-(p-tolyl)ethyl)boric acid] |
